Assay results reported in patent US20260027104A1, “NOVEL NAPHTHYL AND ISOQUINOLINE SULFONAMIDE DERIVATIVES” (Hoffmann-La Roche Inc., priority 2022, published 2026).

Molecular target: human GPR17 short isoform (Homo sapiens, UniProt Q13304)
Experiment: hGPR17 cAMP assay (GPR17 cAMP Assay Protocol, antagonist mode)
Assay type: cell-based
Settings: CHO-K1 cells stably expressing untagged human GPR17 short isoform; EC80 of agonist MDL29,951; forskolin 15 μM; 30 min, room temperature; TR-FRET cAMP readout
Method: GPR17 cAMP Assay Protocol:
CHO-K1 cells stably expressing vector containing untagged human GPR17 short isoform (Roche) were cultured at 37° C./5% CO2 in DMEM (Dulbecco's Modified Eagle Medium):F-12 (1:1) supplemented with 10% foetal bovine serum and 400 μg/ml Geneticin.
Changes in intracellular cyclic adenosine monophosphate (cAMP) levels were quantified using the Nano-TRF Detection Assay kit (Roche Diagnostics, Cat. No. 05214386001). This assay allows for direct cAMP quantification in a homogeneous solution. cAMP is detected based on time-resolved fluorescence energy transfer (TR-FRET) and competitive binding of ruthenylated cAMP and endogenous cAMP to an anti-cAMP monoclonal antibody labeled with AlexaFluor-700. The Ruthenium complex serves as the FRET donor and transfers energy to AlexaFluor-700. The FRET signal is inversely proportional to the cAMP concentration.
CHO-GPR17S cells were detached with Accutase and resuspended in assay buffer consisting of Hank's Balanced Salt Solution (HBSS), 10 mM HEPES (4-(2-hydroxyethyl) piperazine-1-ethanesulfonic acid solution) and 0.1% bovine serum albumin (pH 7.4). The cells were seeded in black 384-well plates (Corning) at a density of 10′000 cells/20 μl assay buffer until the addition of compounds.
Test antagonist compounds were serially diluted in dimethyl sulfoxide (DMSO) and spotted in 384-well plates. The compounds were then diluted in BSS buffer supplemented with an EC80 concentration of MDL29,951 (3-(2-Carboxy-4,6-dichloroindol-3-yl)propionic acid) (GPR17 agonist) plus 3-Isobutyl-1-methylxanthine (IBMX) (0.5 mM final concentration) and added to the cells at room temperature. Forskolin (15 μM final concentration) was added 5 minutes after the test compounds and the cells were incubated at room temperature for 30 minutes. The assay was stopped by adding cAMP detection mix (containing detergents for cell lysis) for 90 minutes at room temperature.
Cellular cAMP was measured using a Paradigm reader (Molecular Devices). The raw data was used to calculate the FRET signal based on the assay's P-factor as per cAMP kit instructions. The data was normalized to the maximal activity of a reference antagonist and dose response curves were fitted to the percent activity of the test compounds using a sigmoidal dose response model (Genedata Screener).
Results in the hGPR17 cAMP assay are provided for compounds of formula I in Table 1

human GPR17 short isoform, sequence (Q13304 29-367): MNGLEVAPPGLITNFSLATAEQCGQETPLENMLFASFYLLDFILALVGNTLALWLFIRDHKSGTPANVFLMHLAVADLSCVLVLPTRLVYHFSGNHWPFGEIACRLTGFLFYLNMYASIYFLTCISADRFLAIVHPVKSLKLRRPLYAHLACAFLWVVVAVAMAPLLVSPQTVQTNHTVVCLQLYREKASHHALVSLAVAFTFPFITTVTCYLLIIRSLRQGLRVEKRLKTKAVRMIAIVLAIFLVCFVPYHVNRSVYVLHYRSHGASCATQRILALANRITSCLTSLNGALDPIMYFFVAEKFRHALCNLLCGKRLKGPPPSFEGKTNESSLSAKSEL

Structure (SMILES) | IC50 [nM]
N#CCc1cc(F)c(NS(=O)(=O)c2cccc3ccccc23)cc1F [Example 1, N-(4-(cyanomethyl)-2,5-difluorophenyl)naphthalene-1-sulfonamide] | 282
N#CCc1cc(F)c(NS(=O)(=O)c2cccc3nc(Cl)ccc23)cc1F [Example 3, 2-chloro-N-[4-(cyanomethyl)-2,5-difluoro-phenyl]quinoline-5-sulfonamide] | 217
COc1nc(C2COC2)c(F)cc1NS(=O)(=O)c1cccc2nc(Cl)ccc12 [Example 7, 2-chloro-N-[5-fluoro-2-methoxy-6-(oxetan-3-yl)-3-pyridyl]quinoline-5-sulfonamide] | 431
COc1nc(NS(=O)(=O)c2cccc3nc(Cl)ccc23)nc(OC)c1CC(F)F [Example 8, 2-chloro-N-[5-(2,2-difluoroethyl)-4,6-dimethoxy-pyrimidin-2-yl]quinoline-5-sulfonamide] | 174
COc1nc(NS(=O)(=O)c2cccc3nc(Cl)ccc23)c(F)cc1OCC(F)F [Example 9, 2-chloro-N-[5-(2,2-difluoroethoxy)-3-fluoro-6-methoxy-2-pyridyl]quinoline-5-sulfonamide] | 495
O=S(=O)(Nc1cc(F)c(OC(F)F)nc1OC(F)F)c1cccc2nc(Cl)ccc12 [Example 11, N-[2,6-bis(difluoromethoxy)-5-fluoro-3-pyridyl]-2-chloro-quinoline-5-sulfonamide] | 111
N#CCc1cc(F)c(NS(=O)(=O)c2cncc3cc(Cl)ccc23)cc1F [Example 12, 7-chloro-N-[4-(cyanomethyl)-2,5-difluoro-phenyl]isoquinoline-4-sulfonamide] | 260
COc1nc(OC(F)F)c(F)cc1NS(=O)(=O)c1cncc2cc(Cl)ccc12 [Example 13, 7-chloro-N-[6-(difluoromethoxy)-5-fluoro-2-methoxy-3-pyridyl]isoquinoline-4-sulfonamide] | 92
COc1nc(NS(=O)(=O)c2cncc3cc(Cl)ccc23)c(F)cc1OCC(F)F [Example 14, 7-chloro-N-[5-(2,2-difluoroethoxy)-3-fluoro-6-methoxy-2-pyridyl]isoquinoline-4-sulfonamide] | 415
N#CCc1cc(F)c(NS(=O)(=O)c2cccc3c(Cl)cccc23)cc1F [Example 17, 5-chloro-N-[4-(cyanomethyl)-2,5-difluoro-phenyl]naphthalene-1-sulfonamide] | 88
COc1nc(OCC(F)F)c(F)cc1NS(=O)(=O)c1cccc2ccc(Cl)cc12 [Example 19, 7-chloro-N-[6-(2,2-difluoroethoxy)-5-fluoro-2-methoxy-3-pyridyl]naphthalene-1-sulfonamide] | 89
N#CCc1cc(F)c(NS(=O)(=O)c2cnc(O)c3c(Cl)cccc23)cc1F [Example 20, 8-chloro-N-[4-(cyanomethyl)-2,5-difluoro-phenyl]-1-hydroxy-isoquinoline-4-sulfonamide] | 327
N#CCc1cc(F)c(NS(=O)(=O)c2c[nH]c(=O)c3cc(Cl)ccc23)cc1F [Example 21, 7-chloro-N-[4-(cyanomethyl)-2,5-difluoro-phenyl]-1-keto-2H-isoquinoline-4-sulfonamide] | 174
COc1nc(NS(=O)(=O)c2c[nH]c(=O)c3cc(Cl)ccc23)ncc1OCCF [Example 22, 7-chloro-N-[5-(2-fluoroethoxy)-4-methoxy-pyrimidin-2-yl]-1-keto-2H-isoquinoline-4-sulfonamide] | 331
COc1nc(NS(=O)(=O)c2c[nH]c(=O)c3cc(Cl)ccc23)nc(OC)c1CC(F)F [Example 24, 7-chloro-N-[5-(2,2-difluoroethyl)-4,6-dimethoxy-pyrimidin-2-yl]-1-keto-2H-isoquinoline-4-sulfonamide] | 278
N#CCc1cc(F)c(NS(=O)(=O)c2c[nH]c(=O)c3nc(Cl)ccc23)cc1F [Example 28, 2-chloro-N-[4-(cyanomethyl)-2,5-difluoro-phenyl]-8-oxo-7H-1,7-naphthyridine-5-sulfonamide] | 955
CN(C)c1ccc2c(S(=O)(=O)Nc3cc(F)c(CC#N)cc3F)cccc2n1 [Example 32, N-[4-(cyanomethyl)-2,5-difluoro-phenyl]-2-(dimethylamino)quinoline-5-sulfonamide] | 238

The next compounds have a lower IC50 than those just listed; values first:

IC50 [nM] | Structure (SMILES)
85 | COc1nc(OCC(F)F)c(F)cc1NS(=O)(=O)c1cccc2ccccc12 [Example 2, N-[6-(2,2-difluoroethoxy)-5-fluoro-2-methoxy-3-pyridyl]naphthalene-1-sulfonamide]
45 | COc1nc(C2CC2)c(F)cc1NS(=O)(=O)c1cccc2nc(Cl)ccc12 [Example 4, 2-chloro-N-(6-cyclopropyl-5-fluoro-2-methoxy-3-pyridyl)quinoline-5-sulfonamide]
19 | COc1nc(CC#N)c(F)cc1NS(=O)(=O)c1cccc2nc(Cl)ccc12 [Example 5, 2-chloro-N-[6-(cyanomethyl)-5-fluoro-2-methoxy-3-pyridyl]quinoline-5-sulfonamide]
49 | COc1nc(OC(F)F)c(F)cc1NS(=O)(=O)c1cccc2nc(Cl)ccc12 [Example 6, 2-chloro-N-[6-(difluoromethoxy)-5-fluoro-2-methoxy-3-pyridyl]quinoline-5-sulfonamide]
28 | COc1nc(OCC(F)F)c(F)cc1NS(=O)(=O)c1cccc2nc(Cl)ccc12 [Example 10, 2-chloro-N-[6-(2,2-difluoroethoxy)-5-fluoro-2-methoxy-3-pyridyl]quinoline-5-sulfonamide]
11 | COc1nc(OCC(F)F)c(F)cc1NS(=O)(=O)c1cncc2cc(Cl)ccc12 [Example 15, 7-chloro-N-[6-(2,2-difluoroethoxy)-5-fluoro-2-methoxy-3-pyridyl]isoquinoline-4-sulfonamide]
31 | COc1nc(OCC(F)F)c(F)cc1NS(=O)(=O)c1cccc2c1CCC(C)O2 (stereo not shown) [Example 16, N-[6-(2,2-difluoroethoxy)-5-fluoro-2-methoxy-3-pyridyl]-2-methyl-chromane-5-sulfonamide]
43 | COc1nc(OCC(F)F)c(F)cc1NS(=O)(=O)c1cccc2c(Cl)cccc12 [Example 18, 5-chloro-N-[6-(2,2-difluoroethoxy)-5-fluoro-2-methoxy-3-pyridyl]naphthalene-1-sulfonamide]
19 | COc1nc(OC(F)F)c(F)cc1NS(=O)(=O)c1c[nH]c(=O)c2cc(Cl)ccc12 [Example 23, 7-chloro-N-[6-(difluoromethoxy)-5-fluoro-2-methoxy-3-pyridyl]-1-keto-2H-isoquinoline-4-sulfonamide]
50 | COc1nc(NS(=O)(=O)c2c[nH]c(=O)c3cc(Cl)ccc23)c(F)cc1OCC(F)F [Example 25, 7-chloro-N-[5-(2,2-difluoroethoxy)-3-fluoro-6-methoxy-2-pyridyl]-1-oxo-2H-isoquinoline-4-sulfonamide]
5 | COc1nc(OCC(F)F)c(F)cc1NS(=O)(=O)c1c[nH]c(=O)c2cc(Cl)ccc12 [Example 26]
32 | O=c1[nH]cc(S(=O)(=O)Nc2cc(F)c(OC(F)F)nc2OC(F)F)c2ccc(Cl)cc12 [Example 27, N-[2,6-bis(difluoromethoxy)-5-fluoro-3-pyridyl]-7-chloro-1-keto-2H-isoquinoline-4-sulfonamide]
30 | COc1nc(OCC(F)F)c(F)cc1NS(=O)(=O)c1c[nH]c(=O)c2nc(Cl)ccc12 [Example 29, 2-chloro-N-[6-(2,2-difluoroethoxy)-5-fluoro-2-methoxy-3-pyridyl]-8-keto-7H-1,7-naphthyridine-5-sulfonamide]
35 | COc1nc(OCC(F)F)c(F)cc1NS(=O)(=O)c1cc(=O)[nH]c2cc(Cl)ccc12 [Example 30, 7-chloro-N-[6-(2,2-difluoroethoxy)-5-fluoro-2-methoxy-3-pyridyl]-2-keto-1H-quinoline-4-sulfonamide]
65 | COc1nc(OCC(F)F)c(F)cc1NS(=O)(=O)c1cccc2nc(N(C)C)ccc12 [Example 31, N-[6-(2,2-difluoroethoxy)-5-fluoro-2-methoxy-3-pyridyl]-2-(dimethylamino)quinoline-5-sulfonamide]
11 | COc1nc(OCC(F)F)c(F)cc1NS(=O)(=O)c1cccc2nc(C)ccc12 [Example 33, N-[6-(2,2-difluoroethoxy)-5-fluoro-2-methoxy-3-pyridyl]-2-methyl-quinoline-5-sulfonamide]
48 | COc1nc(OCC(F)F)c(F)cc1NS(=O)(=O)c1cccc2cc(Cl)ccc12 [Example 34, 6-chloro-N-[6-(2,2-difluoroethoxy)-5-fluoro-2-methoxy-3-pyridyl]naphthalene-1-sulfonamide]
